Results taken from patent publication US7767659B2, “Synthesis of naturally occurring ecteinascidins and related compounds” (Pharma Mar, S.A., priority 2002, dated 2010).

How the values were obtained:
[1] = test system: A-549; assay: cells; conditions: Homo sapiens, A549, 48 h; for GI50: read-out: A549 GI50; for CC50: read-out: A549 LC50; for IC (TGI): read-out: A549 TGI
Summary of the method: (§1)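 Colorimetric SRB read (490 nm) on triplicate wells after 48 h at 37 °C, 5% CO2. Dose range 10 to 10^−8 μg/ml; 5×10^3 cells/well pre-attached 18 h.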

[2] = test system: HT-29; assay: cells; conditions: Homo sapiens, HT-29, 48 h; for GI50: read-out: HT29 GI50; for CC50: read-out: HT29 LC50; for IC (TGI): read-out: HT29 TGI
Summary of the method: as §1

[3] = test system: LoVo; assay: cells; conditions: Homo sapiens, LoVo, 48 h; for GI50: read-out: LOVO GI50; for CC50: read-out: LOVO LC50; for IC (TGI): read-out: LOVO TGI
Summary of the method: as §1

[4] = test system: DU-145; assay: Inhibition of cells growth by colorimetric assay (SRB); conditions: Homo sapiens, DU-145, 48 h; for GI50: read-out: DU145 GI50; for CC50: read-out: DU145 LC50; for IC (TGI): read-out: DU145 TGI
Summary of the method: as §1

[5] = test system: HeLa-APL; assay: as above; conditions: Homo sapiens, 48 h; for GI50: read-out: HELA-APL GI50; for CC50: read-out: HELA-APL LC50; for IC (TGI): read-out: HELA-APL TGI
Summary of the method: as §1

[6] = test system: HeLa; assay: as above; conditions: Homo sapiens, HeLa, 48 h; for GI50: read-out: HELA GI50; for CC50: read-out: HELA LC50; for IC (TGI): read-out: HELA TGI
Summary of the method: as §1

[7] = test system: IGROV-1; assay: as above; conditions: Homo sapiens, IGROV-1, 48 h; for GI50: read-out: IGROV GI50; for CC50: read-out: IGROV LC50; for IC (TGI): read-out: IGROV TGI
Summary of the method: as §1

[8] = test system: IGROV-ET; assay: as above; conditions: Homo sapiens, 48 h; for GI50: read-out: IGROV-ET GI50; for CC50: read-out: IGROV-ET LC50; for IC (TGI): read-out: IGROV-ET TGI
Summary of the method: as §1

[9] = test system: K-562; assay: as above; conditions: Homo sapiens, K562, 48 h; for GI50: read-out: K562 GI50; for CC50: read-out: K562 LC50; for IC (TGI): read-out: K562 TGI
Summary of the method: as §1

[10] = test system: LNCaP; assay: as above; conditions: Homo sapiens, LNCaP, 48 h; for GI50: read-out: LNCAP GI50; for CC50: read-out: LNCAP LC50; for IC (TGI): read-out: LNCAP TGI
Summary of the method: as §1

[11] = test system: LoVo-Dox; assay: as above; conditions: Homo sapiens, 48 h; for GI50: read-out: LOVO-DOX GI50; for CC50: read-out: LOVO-DOX LC50; for IC (TGI): read-out: LOVO-DOX TGI
Summary of the method: as §1

[12] = test system: PANC-1; assay: as above; conditions: Homo sapiens, PANC-1, 48 h; for GI50: read-out: PANC-1 GI50; for CC50: read-out: PANC-1 LC50; for IC (TGI): read-out: PANC-1 TGI
Summary of the method: as §1

[13] = test system: SK-BR-3; assay: as above; conditions: Homo sapiens, SK-BR-3, 48 h; for GI50: read-out: SK-BR3 GI50; for CC50: read-out: SK-BR3 LC50; for IC (TGI): read-out: SK-BR3 TGI
Summary of the method: as §1

[14] = test system: SK-MEL-28; assay: as above; conditions: Homo sapiens, SK-MEL-28, 48 h; for GI50: read-out: MEL-28 GI50; for CC50: read-out: MEL-28 LC50; for IC (TGI): read-out: MEL-28 TGI
Summary of the method: as §1

`C=CCN1[C@@H]2c3c(cc(C)c(OC)c3OC(=O)OC(C)(C)C)C[C@H]1[C@H](C#N)N1C2[C@@H]2SC[C@]3(NCCc4cc(OC(=O)OC(C)(C)C)c(OC)cc43)C(=O)OC[C@H]1c1c3c(c(C)c(OC(C)=O)c12)OCO3` (stereo partly drawn) [compound 45] gave a GI50 [1] of 162 nM, a CC50 [1] of 1500 nM and an IC (TGI) [1] of 0.413 µM. For the same compound, the GI50 [2] was 83.6 nM, the CC50 [2] was 10 µM and the IC (TGI) [2] was 1.41 µM. For the same compound, the GI50 [3] was 130 nM, the CC50 [3] was 614 nM and the IC (TGI) [3] was 0.283 µM. The GI50 [4] was 35.9 nM, the CC50 [4] was 10 µM and the IC (TGI) [4] was 0.103 µM. It also gave a GI50 [5] of 28.4 nM, a CC50 [5] of 783 nM and an IC (TGI) [5] of 0.121 µM. The GI50 [6] was 16.4 nM, the CC50 [6] was 79.7 nM and the IC (TGI) [6] was 0.0362 µM. For the same compound, the GI50 [7] was 56.9 nM, the CC50 [7] was 10 µM and the IC (TGI) [7] was 0.392 µM. The GI50 [8] was 86.5 nM, the CC50 [8] was 10 µM and the IC (TGI) [8] was 0.497 µM. It also gave a GI50 [9] of 17.6 nM, a CC50 [9] of 10 µM and an IC (TGI) [9] of 0.15 µM. It also gave a GI50 [10] of 3.83 nM, a CC50 [10] of 51.5 nM and an IC (TGI) [10] of 0.0173 µM. It also gave a GI50 [11] of 479 nM, a CC50 [11] of 10 µM and an IC (TGI) [11] of 3.14 µM. It also gave a GI50 [12] of 229 nM, a CC50 [12] of 10 µM and an IC (TGI) [12] of 1.24 µM. For the same compound, the GI50 [13] was 2.83 nM, the CC50 [13] was 133 nM and the IC (TGI) [13] was 7.56 nM. The GI50 [14] was 117 nM, the CC50 [14] was 689 nM and the IC (TGI) [14] was 0.285 µM.

Compound `COc1cc2c(cc1O)CCN[C@]21C[S+]([O-])[C@@H]2c3c(OC(C)=O)c(C)c4c(c3[C@H](COC1=O)N1C2C2c3c(cc(C)c(OC)c3O)C[C@@H]([C@@H]1O)N2C)OCO4` (stereo partly drawn) [Et-759B] has a GI50 [1] of 26.2 nM, a CC50 [1] of 702 nM and an IC (TGI) [1] of 0.0613 µM. For the same compound, the GI50 [2] was 41.9 nM, the CC50 [2] was 12.9 µM and the IC (TGI) [2] was 2.29 µM. The GI50 [3] was 327 nM, the CC50 [3] was 118 nM and the IC (TGI) [3] was 0.0621 µM. The GI50 [4] was 391 nM, the CC50 [4] was 11.9 µM and the IC (TGI) [4] was 3.2 µM. It also gave a GI50 [5] of 35.9 nM, a CC50 [5] of 1040 nM and an IC (TGI) [5] of 0.102 µM. For the same compound, the GI50 [6] was 21.3 nM, the CC50 [6] was 527 nM and the IC (TGI) [6] was 0.0642 µM. For the same compound, the GI50 [7] was 22.9 nM, the CC50 [7] was 10 µM and the IC (TGI) [7] was 0.0652 µM. For the same compound, the GI50 [8] was 58.2 nM, the CC50 [8] was 1.71 µM and the IC (TGI) [8] was 0.273 µM. For the same compound, the GI50 [9] was 6 nM, the CC50 [9] was 12.9 µM and the IC (TGI) [9] was 0.0379 µM. The GI50 [10] was 4.64 nM, the CC50 [10] was 52.2 nM and the IC (TGI) [10] was 0.0167 µM. The GI50 [11] was 192 nM, the CC50 [11] was 12.9 µM and the IC (TGI) [11] was 0.625 µM. The GI50 [12] was 35.5 nM, the CC50 [12] was 11 µM and the IC (TGI) [12] was 0.122 µM. The GI50 [13] was 5.37 nM, the CC50 [13] was 88.1 nM and the IC (TGI) [13] was 11.6 nM. The GI50 [14] was 19.7 nM, the CC50 [14] was 123 nM and the IC (TGI) [14] was 0.0491 µM.
